Laboratory results reported in PubChem BioAssay (NCI).
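Test compounds were applied to cells in 96-well plates for 48 hours at 5 doses. At the GI50, growth is halved. TGI is the concentration that stops growth completely.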

How the values were obtained:
Assay in all cases: NCI tumour cell line growth inhibition, 48 h
[1] = system: A498 renal
[2] = system: OVCAR-8 ovarian
[3] = system: MCF7 breast
[4] = system: HT29 colon
[5] = system: EKVX NSCLC
[6] = system: SK-OV-3 ovarian
[7] = system: A549 NSCLC
[8] = system: MDA-MB-231 breast
[9] = system: NCI-H226 lung
[10] = system: SF-539 CNS
[11] = system: MDA-MB-435
[12] = system: PC-3 prostate
[13] = system: NCI-H460 lung
[14] = system: DU-145 prostate

Structure (SMILES)	TGI [1] [µM]	TGI [2] [µM]	TGI [3] [µM]	TGI [4] [µM]	TGI [5] [µM]	TGI [6] [µM]	TGI [7] [µM]	TGI [8] [µM]	TGI [9] [µM]	TGI [10] [µM]	TGI [11] [µM]	TGI [12] [µM]	TGI [13] [µM]	TGI [14] [µM]	GI50 [9] [µM]	GI50 [10] [µM]
Cc1ccc2c(n1)C(=O)c1ccccc1C2=O	> 88.4	74.8	38.8	> 87.9	96.3	> 100	69	75.5	> 100	> 87.1	32.6	68.8	> 69	36.4		
COc1cccc(NC(=O)CC(=O)N2N=C(C)C(N=Nc3ccc(S(=O)(=O)c4ccc(N=NC5C(=O)N(C(=O)CC(=O)Nc6cccc(OC)c6)N=C5C)cc4)cc3)C2=O)c1 (stereo unspecified)	> 100	> 100	> 100	> 100	> 100	> 100	> 100	> 100	> 100	> 100	> 100	> 100	> 100	> 100		
CC[C@@H](/C=C\CCC1(C[C@H](O)CCC=C(C)C)OCCO1)O[Si](C(C)C)(C(C)C)C(C)C	81.3	38	32	65.9	60.2	41.8	> 100	31.2	35.9	34.8	> 100	> 100	53.3	> 100		
CCOC(=O)CCC(NC(=O)c1ccc(N2CCN(c3c(C)nc(N)nc3N)CC2)cc1)C(=O)OCC (stereo unspecified)	> 100	> 100	> 100	> 100	> 100	> 100	> 100	> 100	> 100	> 100	> 48.1	> 100	96.9	> 100		
CSc1ccc(/C=C2\N=C(c3ccccc3)N(c3nc4ccc(Sc5ccccc5)cc4[nH]3)C2=O)cc1	62	> 87.4	45.9	50.4	> 100	60.8	> 97.2	55.5	> 83.1	32.5	16.1	> 87.9	61.3	70.7	20.6	15
COC(=O)CCC12CCC(O1)c1ccccc12 (stereo unspecified)	> 100	> 100	> 100	> 100	> 100	> 100	> 100	> 100	> 100	> 100	> 100	> 100	> 100	> 100		
COc1ccc(CCNC(=O)Cc2cc(OC)c(OC)cc2CO)cc1OC	> 100	> 100	> 100	> 100	> 100	> 100	> 100	> 100	> 100	> 100	> 100	> 100	> 100	> 100		
COc1ccc(N=C(Nc2ccc(OC)cc2)C(=Nc2ccc(OC)cc2)Nc2ccc(OC)cc2)cc1	> 100	> 100	> 100	> 100	> 100	> 100	> 100	> 100	> 100	> 100	> 100	> 100	> 100	> 100		
C#C[C@]1(O)CC[C@H]2[C@@H]3CCc4cc(OC(=O)c5cccc6cc7ccccc7nc56)ccc4[C@H]3CC[C@@]21C	> 100	> 100	> 100	> 100	> 100	> 100	> 100	71.9	> 100	> 100	> 100	> 100	> 100	78.9		
Clc1ccc(C2NN=C3c4ccccc4OCC32)cc1 (stereo unspecified)	92.6	55.2	> 45.2	12.2	27.2	> 100	> 100	6.91	14.2	7.17	> 21.3	64.3	25.8	> 95.4		
Cc1cccc(NC(=S)N=Nc2c(O)[nH]c3ccccc23)c1	98.1	> 100	> 100	> 100	> 100	> 100	> 100	> 100	> 100	> 100	> 100	> 100	> 100	70.6		
